ChEMBL document CHEMBL3351415, “Synthesis, antimicrobial and anti-biofilm activities of novel Schiff base analogues derived from methyl-12-aminooctadec-9-enoate” (Bioorg Med Chem Lett, 2014)
In brackets after ≈: the same amount, converted by molar mass.

Columns and labels:
[1] = test system: Micrococcus luteus; assay: Antimicrobial activity against Micrococcus luteus MTCC 2470 incubated for 24 hrs by well diffusion method; type: functional; settings: MTCC 2470, 24 h
[2] = test system: Staphylococcus aureus; assay: Antimicrobial activity against Staphylococcus aureus MTCC 96 incubated for 24 hrs by well diffusion method; type: functional; settings: MTCC 96, 24 h
[3] = test system: Staphylococcus aureus; assay: Antimicrobial activity against Staphylococcus aureus MLS-16 MTCC 2940 incubated for 24 hrs by well diffusion method; type: functional; settings: MLS-16 MTCC 2940, 24 h
[4] = test system: Bacillus subtilis; assay: Antimicrobial activity against Bacillus subtilis MTCC 121 incubated for 24 hrs by well diffusion method; type: functional; settings: MTCC 121, 24 h
[5] = test system: Escherichia coli; assay: Antimicrobial activity against Escherichia coli MTCC 739 incubated for 24 hrs by well diffusion method; type: functional; settings: MTCC 739, 24 h
[6] = test system: Pseudomonas aeruginosa; assay: Antimicrobial activity against Pseudomonas aeruginosa MTCC 2453 incubated for 24 hrs by well diffusion method; type: functional; settings: MTCC 2453, 24 h
[7] = Antimicrobial activity against Klebsiella […] incubated for 24 hrs by well diffusion method; type: functional, Raoultella planticola
[8] = test system: Staphylococcus aureus; assay: Bactericidal activity against Staphylococcus aureus MTCC 96 incubated for 24 hrs; type: functional; settings: MTCC 96, 24 h
[9] = test system: Staphylococcus aureus; assay: Bactericidal activity against Staphylococcus aureus MLS-16 MTCC 2940 incubated for 24 hrs; type: functional; settings: MLS-16 MTCC 2940, 24 h
[10] = test system: Bacillus subtilis; assay: Bactericidal activity against Bacillus subtilis MTCC 121 incubated for 24 hrs; type: functional; settings: MTCC 121, 24 h
[11] = test system: Staphylococcus aureus; assay: Anti-biofilm activity against Staphylococcus aureus MTCC 96 assessed as inhibition of biofilm formation incubated for 24 hrs by crystal violet staining based modified biofilm inhibition assay; type: functional, organism-based; settings: MTCC 96, 24 h
[12] = test system: Staphylococcus aureus; assay: Anti-biofilm activity against Staphylococcus aureus MLS-16 MTCC 2940 assessed as inhibition of biofilm formation incubated for 24 hrs by crystal violet staining based modified biofilm inhibition assay; type: functional, organism-based; settings: MLS-16 MTCC 2940, 24 h
[13] = test system: Bacillus subtilis; assay: Anti-biofilm activity against Bacillus subtilis MTCC 121 assessed as inhibition of biofilm formation incubated for 24 hrs by crystal violet staining based modified biofilm inhibition assay; type: functional, organism-based; settings: MTCC 121, 24 h

Row | SMILES | MIC [1] | MIC [2] | MIC [3] | MIC [4] | MIC [5] | MIC [6] | MIC [7] | MBC [8] | MBC [9] | MBC [10] | IC50 [11] | IC50 [12] | IC50 [13]
1 | CCCCCCC(C/C=C\CCCCCCCC(=O)OC)/N=C\c1ccc(N(C)C)cc1 (stereo not given) | > 300 µM | 17.6 µM (≈ 7.79 µg/mL) | 17.6 µM (≈ 7.79 µg/mL) | 35.2 µM (≈ 15.6 µg/mL) | > 300 µM | > 300 µM | > 300 µM | 17.6 µM (≈ 7.79 µg/mL) | 35.2 µM (≈ 15.6 µg/mL) | 70.5 µM (≈ 31.2 µg/mL) | 9.5 µM | 11.5 µM | 27.8 µM
2 | CCCCCCC(C/C=C\CCCCCCCC(=O)OC)/N=C\c1ccc(OC)cc1OC (stereo not given) | > 300 µM | 67.9 µM (≈ 31.2 µg/mL) | 33.9 µM (≈ 15.6 µg/mL) | 33.9 µM (≈ 15.6 µg/mL) | > 300 µM | > 300 µM | > 300 µM |  |  |  |  |  | 
3 | CCCCCCC(C/C=C\CCCCCCCC(=O)OC)/N=C\c1cc(OC)c(O)c(OC)c1 (stereo not given) | > 300 µM | 16.4 µM (≈ 7.8 µg/mL) | 16.4 µM (≈ 7.8 µg/mL) | 16.4 µM (≈ 7.8 µg/mL) | > 300 µM | > 300 µM | > 300 µM | 16.4 µM (≈ 7.8 µg/mL) | 32.8 µM (≈ 15.6 µg/mL) | 16.4 µM (≈ 7.8 µg/mL) | 7.3 µM | 6.5 µM | 8.6 µM
4 | CCCCCCC(C/C=C\CCCCCCCC(=O)OC)/N=C\c1cccc([N+](=O)[O-])c1 (stereo not given) | > 300 µM | > 300 µM | > 300 µM | > 300 µM | > 300 µM | > 300 µM | > 300 µM |  |  |  |  |  | 
5 | CCCCCCC(C/C=C\CCCCCCCC(=O)OC)/N=C\c1c[nH]c2ccccc12 (stereo not given) | > 300 µM | 17.8 µM (≈ 7.81 µg/mL) | 17.8 µM (≈ 7.81 µg/mL) | 35.6 µM (≈ 15.6 µg/mL) | > 300 µM | > 300 µM | > 300 µM | 35.6 µM (≈ 15.6 µg/mL) | 35.6 µM (≈ 15.6 µg/mL) | 71.2 µM (≈ 31.2 µg/mL) | 7.3 µM | 9.5 µM | 21.9 µM
6 | CCCCCCC(C/C=C\CCCCCCCC(=O)OC)/N=C\c1ccc(C)cc1 (stereo not given) | > 300 µM | > 300 µM | > 300 µM | > 300 µM | > 300 µM | > 300 µM | > 300 µM |  |  |  |  |  | 
7 | CCCCCCC(C/C=C\CCCCCCCC(=O)OC)/N=C\c1ccc(F)cc1 (stereo not given) | > 300 µM | 150 µM (≈ 62.6 µg/mL) | 150 µM (≈ 62.6 µg/mL) | 150 µM (≈ 62.6 µg/mL) | > 300 µM | > 300 µM | > 300 µM |  |  |  |  |  | 
8 | CCCCCCC(C/C=C\CCCCCCCC(=O)OC)/N=C\c1cccc(C)c1 (stereo not given) | > 300 µM | 151 µM (≈ 62.6 µg/mL) | 75.5 µM (≈ 31.2 µg/mL) | 75.5 µM (≈ 31.2 µg/mL) | > 300 µM | > 300 µM | > 300 µM |  |  |  |  |  | 
9 | CCCCCCC(C/C=C\CCCCCCCC(=O)OC)/N=C\c1ccc(Cl)cc1Cl (stereo not given) | > 300 µM | > 300 µM | > 300 µM | > 300 µM | > 300 µM | > 300 µM | > 300 µM |  |  |  |  |  | 
10 | CCCCCCC(C/C=C\CCCCCCCC(=O)OC)/N=C\c1ccc(O)cc1 (stereo not given) | > 300 µM | 18.7 µM (≈ 7.77 µg/mL) | 18.7 µM (≈ 7.77 µg/mL) | 37.5 µM (≈ 15.6 µg/mL) | > 300 µM | > 300 µM | > 300 µM | 37.5 µM (≈ 15.6 µg/mL) | 37.5 µM (≈ 15.6 µg/mL) | 75.1 µM (≈ 31.2 µg/mL) | 10.1 µM | 9.1 µM | 19.5 µM
11 | CCCCCCC(C/C=C\CCCCCCCC(=O)OC)/N=C\c1ccc(OC)cc1 (stereo not given) | > 300 µM | 18.1 µM (≈ 7.78 µg/mL) | 36.3 µM (≈ 15.6 µg/mL) | 18.1 µM (≈ 7.78 µg/mL) | > 300 µM | > 300 µM | > 300 µM | 36.3 µM (≈ 15.6 µg/mL) | 36.3 µM (≈ 15.6 µg/mL) | 36.3 µM (≈ 15.6 µg/mL) | 12.1 µM | 23.7 µM | 7.9 µM
12 | CCCCCCC(C/C=C\CCCCCCCC(=O)OC)/N=C\c1ccc(Cl)cc1 (stereo not given) | > 300 µM | 9 µM (≈ 3.91 µg/mL) | 9 µM (≈ 3.91 µg/mL) | 9 µM (≈ 3.91 µg/mL) | > 300 µM | > 300 µM | > 300 µM | 18 µM (≈ 7.81 µg/mL) | 18 µM (≈ 7.81 µg/mL) | 9 µM (≈ 3.91 µg/mL) | 4.8 µM | 4.3 µM | 6 µM
13 | CCCCCCC(C/C=C\CCCCCCCC(=O)OC)/N=C\c1ccc(O)c(OC)c1 (stereo not given) | > 300 µM | 17.5 µM (≈ 7.8 µg/mL) | 17.5 µM (≈ 7.8 µg/mL) | 17.5 µM (≈ 7.8 µg/mL) | > 300 µM | > 300 µM | > 300 µM | 35 µM (≈ 15.6 µg/mL) | 35 µM (≈ 15.6 µg/mL) | 35 µM (≈ 15.6 µg/mL) | 9.4 µM | 8 µM | 10.3 µM
14 | CCCCCCC(C/C=C\CCCCCCCC(=O)OC)/N=C\c1ccc(OC)c(OC)c1 (stereo not given) | > 300 µM | 67.9 µM (≈ 31.2 µg/mL) | 33.9 µM (≈ 15.6 µg/mL) | 33.9 µM (≈ 15.6 µg/mL) | > 300 µM | > 300 µM | > 300 µM | 136 µM (≈ 62.5 µg/mL) | 67.9 µM (≈ 31.2 µg/mL) | 33.9 µM (≈ 15.6 µg/mL) | 41.8 µM | 24.4 µM | 21.3 µM
15 | CCCCCCC(C/C=C\CCCCCCCC(=O)OC)/N=C\C=C\c1ccc(N(C)C)cc1 (stereo not given) | > 300 µM | 16.6 µM (≈ 7.78 µg/mL) | 16.6 µM (≈ 7.78 µg/mL) | 33.3 µM (≈ 15.6 µg/mL) | > 300 µM | > 300 µM | > 300 µM | 16.6 µM (≈ 7.78 µg/mL) | 33.3 µM (≈ 15.6 µg/mL) | 66.6 µM (≈ 31.2 µg/mL) | 10.2 µM | 8.1 µM | 21.7 µM
16 | O=C(O)c1cn(C2CC2)c2cc(N3CCNCC3)c(F)cc2c1=O [CIPROFLOXACIN] | 2.7 µM (≈ 0.895 µg/mL) | 2.7 µM (≈ 0.895 µg/mL) | 2.7 µM (≈ 0.895 µg/mL) | 2.7 µM (≈ 0.895 µg/mL) | 2.7 µM (≈ 0.895 µg/mL) | 2.7 µM (≈ 0.895 µg/mL) | 2.7 µM (≈ 0.895 µg/mL) | 2.7 µM (≈ 0.895 µg/mL) | 5.7 µM (≈ 1.89 µg/mL) | 5.7 µM (≈ 1.89 µg/mL) | 0.99 µM |  | 1.53 µM
17 | CCCCCCC(C/C=C\CCCCCCCC(=O)OC)/N=C\c1ccc(C#N)cc1 (stereo not given) | > 300 µM | > 300 µM | > 300 µM | > 300 µM | > 300 µM | > 300 µM | > 300 µM |  |  |  |  |  | 
18 | CCCCCCC(C/C=C\CCCCCCCC(=O)OC)/N=C\c1ccccc1O (stereo not given) | > 300 µM | > 300 µM | > 300 µM | > 300 µM | > 300 µM | > 300 µM | > 300 µM |  |  |  |  |  | 
